Test results: US7304090B2, “Inhibition of the cystic fibrosis transmembrane conductance regulator chloride channel” (The University of Bristol, priority 2000, dated 2007)

Columns and labels:
[1] = biological target: T1, wild-type human CFTR (Homo sapiens, UniProt P13569); experiment: CFTR Cl− channels recorded in excised inside-out membrane patches from C127 cells (patch-clamp); type: biochemical; conditions: for effect on CFTR Cl− currents: PKA and ATP present
T1 construct: expressed in transfected cells
Description: For electrophysiological experiments, we used mouse mammary epithelial cells (C127 cells) stably expressing wild-type human CFTR (12). C127 cells expressing wild-type CFTR were cultured as previously described (10). Cells were seeded onto glass coverslips and used within 48 h.
The established sign convention was used throughout; currents produced by positive charge moving from intra- to extracellular solutions (anions moving in the opposite direction) are shown as positive currents.
[…] […] All experiments were conducted at 37° C.
PKA was maintained in the intracellular solution for the duration of experiments. Unless otherwise stated, voltage was −50 mV.
In time course studies, each point is the average current for a 4 s period with data points collected continuously; no data were collected while solutions were changed. Average current (I) for a specific intervention was determined as the average of all the data points collected during the intervention. […] Mean data were fitted to a linear form of equation (1) using linear least-squares regression to yield Ki and n values.
To measure single-channel current amplitude (i), Gaussian distributions were fitted to current amplitude histograms. For open probability (Po) and kinetic analyses, lists of open and closed times were created using a half-amplitude crossing criterion for event detection. Transitions <1 ms in duration were excluded from the analyses. Po was calculated using the equation: Po=(T1+T2+ . . . +TN)/(NTtot), (2) where N is the number of channels; Ttot is the total time analysed, and T1 is the time that one or more channels are open, T2 is the time two or more channels are open and so on. Only membrane patches that contained a single active channel were used for single-channel kinetic analyses.
To investigate whether inhibition of CFTR by fluorescein derivatives was voltage dependent, we used voltage ramp protocols. Macroscopic current-voltage (I-V) relationships were obtained in the absence and presence of fluorescein derivatives by averaging currents generated by 15-30 ramps of voltage each of 2 s duration; holding voltage was −50 mV. Basal currents recorded in the absence of PKA and ATP were subtracted from those recorded in the absence and presence of fluorescein derivatives to determine the effect of these agents on CFTR Cl^− currents.

[2] = system: Type I Madin-Darby canine kidney (MDCK) cells; experiment: Cyst growth of MDCK cells in collagen gels with cAMP agonists; type: cell-based; conditions: 40 μM; days 12 to 21
Description: (§1) For cyst growth and cell proliferation experiments, we used Type I Madin-Darby canine kidney (MDCK) cells. We chose Type I MDCK cells because they form cysts when grown in collagen gels in the presence of cAMP agonists (26) and because they express the CFTR Cl^− channel (27). MDCK cells were cultured in MDCK media (a 1:1 mixture of Dulbecco's Modified Eagle Medium (DMEM) and Ham's F-12 nutrient medium supplemented with 100 U ml^−1 penicillin, and 100 μg ml^−1 streptomycin and either 10% fetal bovine serum (FBS; cyst growth) or 5% FBS and 1% insulin-transferrin-selenium-X (ITS-X) supplement (cell proliferation); all from Life Technologies Ltd, Paisley, UK) at 37° C. in a humidified atmosphere of 5% CO2.
To grow cysts, MDCK cells were cultured in collagen gels using a modification of the method of Grantham et al. (26). Cells were trypsinized with 0.25% (wt/vol) trypsin for 30 minutes at 37° C., diluted with MDCK media containing 10% FBS to form a suspension of between 1-3×10^4 cells ml^−1, and aliquoted into individual wells of a 24-well plate (0.1 ml per well). Each well contained 0.4 ml of ice-cold Vitrogen (3.0 mg ml^−1 collagen; Cohesion Technologies Inc., Palo Alto, USA) supplemented with 10% (vol/vol) 10× minimum essential medium, 10 mM N-[2-hydroxyethyl]piperazine-N′-[2-ethanesulphonic acid] (Hepes), 27 mM NaHCO3, 100 U ml^−1 penicillin, and 100 μg ml^−1 streptomycin, and adjusted to pH 7.4 with NaOH. The 24-well plate was gently agitated to distribute cells throughout the Vitrogen and incubated in a water bath at 37° C. for 90 minutes to promote gelation of the Vitrogen.
After gelation, 1.5 ml MDCK media containing 10% FBS was added to each well of the 24-well plate. To promote cyst growth, we added cAMP agonists (forskolin (10 μM), 3-isobutyl-1-methylxanthine (IBMX; 100 μM), and 8-(4-chlorophenylthio) adenosine 3′:5′-cyclic monophosphate (CPT-cAMP; 500 μM)) to the MDCK media. Plates were maintained at 37° C. in a humidified atmosphere of 5% CO2 and the MDCK media containing cAMP agonists changed every three days.
Twelve days after seeding collagen gels with MDCK cells, cysts were readily detected at ×1000 magnification using an inverted microscope with phase contrast optics (Leica, model DMIL, Milton Keynes, UK). To test the effect of CFTR modulators on cyst growth, drugs were added to MDCK media in the continued presence of cAMP agonists. MDCK media containing cAMP agonists and CFTR modulators was changed every 3 days for a total period of 9 days. Photographs of individual cysts were taken before the addition of CFTR modulators and at three day intervals over the duration of the experiment. To identify individual cysts, each cyst was assigned a unique reference number using a grid placed below the 24-well plate.
The diameter of cysts was measured directly from photographs of cysts using images that had been magnified by identical amounts. By assuming that cysts are spherical in shape, we calculated cyst volume ( 4/3·π·r^3).

[3] = system: Type I MDCK cells; experiment: Proliferation of MDCK cells (cell counting); type: cell-based, canine
Description: as §1
To test the effect of CFTR modulators on the proliferation of MDCK cells, we used Type I MDCK cells grown in media containing 5% FBS and 1% ITS-X supplement. On day −1, MDCK cells were seeded at 7.5×10^4 cells ml^−1 in 35 mm dishes containing MDCK media with 1% FBS and 1% ITS-X supplement. On day 0, the concentration of FBS was reduced further to 0.01% and CFTR modulators added to the MDCK media. MDCK media containing CFTR modulators was changed every 2 days for a total period of 6 days. To determine the number of cells per 35 mm dish, Type I MDCK cells were harvested using trypsin (0.25% wt/vol), centrifuged at 1200 rpm for 5 min and resuspended in 1 ml of MDCK media before counting using a haemocytometer.

T1 sequence (P13569 whole entry): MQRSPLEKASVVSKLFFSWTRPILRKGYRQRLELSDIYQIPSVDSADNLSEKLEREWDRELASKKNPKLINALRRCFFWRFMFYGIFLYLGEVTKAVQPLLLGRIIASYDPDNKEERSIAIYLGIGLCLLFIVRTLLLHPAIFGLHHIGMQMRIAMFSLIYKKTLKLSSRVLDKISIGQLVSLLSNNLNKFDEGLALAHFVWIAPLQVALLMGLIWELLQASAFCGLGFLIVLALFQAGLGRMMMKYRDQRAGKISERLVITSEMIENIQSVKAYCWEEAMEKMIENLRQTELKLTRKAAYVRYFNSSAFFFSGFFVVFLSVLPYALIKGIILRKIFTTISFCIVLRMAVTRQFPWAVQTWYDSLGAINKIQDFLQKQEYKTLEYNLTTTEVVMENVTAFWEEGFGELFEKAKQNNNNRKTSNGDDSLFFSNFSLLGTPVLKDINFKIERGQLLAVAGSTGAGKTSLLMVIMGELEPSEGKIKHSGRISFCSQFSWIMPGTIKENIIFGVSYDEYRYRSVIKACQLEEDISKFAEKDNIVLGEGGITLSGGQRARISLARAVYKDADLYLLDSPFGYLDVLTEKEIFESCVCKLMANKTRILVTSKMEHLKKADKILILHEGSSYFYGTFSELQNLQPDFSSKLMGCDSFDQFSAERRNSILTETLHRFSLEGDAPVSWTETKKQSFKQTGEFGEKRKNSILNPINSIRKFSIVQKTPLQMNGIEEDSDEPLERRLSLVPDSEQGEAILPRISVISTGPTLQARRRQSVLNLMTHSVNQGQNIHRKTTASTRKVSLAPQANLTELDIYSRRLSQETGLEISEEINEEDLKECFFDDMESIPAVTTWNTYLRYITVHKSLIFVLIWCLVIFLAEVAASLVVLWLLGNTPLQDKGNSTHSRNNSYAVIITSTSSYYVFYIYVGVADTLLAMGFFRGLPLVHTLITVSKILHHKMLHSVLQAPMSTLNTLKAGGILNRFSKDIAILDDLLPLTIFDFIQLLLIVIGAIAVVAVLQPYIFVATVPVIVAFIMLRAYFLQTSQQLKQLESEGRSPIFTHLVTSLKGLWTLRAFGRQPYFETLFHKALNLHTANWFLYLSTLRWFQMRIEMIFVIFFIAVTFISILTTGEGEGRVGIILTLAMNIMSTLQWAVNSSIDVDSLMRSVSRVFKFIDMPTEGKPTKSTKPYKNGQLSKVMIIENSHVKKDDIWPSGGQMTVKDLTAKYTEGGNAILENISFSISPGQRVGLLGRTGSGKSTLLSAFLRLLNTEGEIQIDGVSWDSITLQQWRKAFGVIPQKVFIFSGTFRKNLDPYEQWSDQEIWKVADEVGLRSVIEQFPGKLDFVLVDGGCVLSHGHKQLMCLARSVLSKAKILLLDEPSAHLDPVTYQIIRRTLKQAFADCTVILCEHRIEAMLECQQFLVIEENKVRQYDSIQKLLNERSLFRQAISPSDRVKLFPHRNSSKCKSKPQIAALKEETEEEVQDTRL

## O=C(O)c1c(Cl)c(Cl)c(Cl)c(Cl)c1-c1c2cc(Br)c(=O)c(Br)c-2oc2c(Br)c(O)c(Br)cc12 [phloxine B]
[1]
  n (slope factor, Hill coefficient) of CFTR inhibition: 2
  potency of CFTR inhibition compared with glibenclamide: potency greater than or equal to that of glibenclamide
  reversibility of CFTR inhibition: partially reversible
[1]; 20 μM
  effect of ATP (5 mM) on inhibition of CFTR Cl− currents: fails to relieve
  pattern of channel gating: dramatically altered the pattern of channel gating
[1]; 20 μM, P<0.05 vs control
  open probability (Po): significantly decreased
  single-channel current amplitude (i): significantly decreased
[1]; 40 μM, symmetrical 147 mM Cl−
  channel block at positive voltages: relieved
  effect on CFTR Cl− currents at negative voltages: decreased CFTR Cl^− currents
[1]; 1-5 μM in intracellular solution
  effect on CFTR Cl− currents: stimulated
[1]; 20-50 μM in intracellular solution
  effect on CFTR Cl− currents: concentration-dependent decrease
[1]; concentration-response, FIG. 3
  rank order of potency for CFTR inhibition: bengal rose B>phloxine B>eosin Y≧tetrachlorofluorescein>>fluorescein
  stimulation of CFTR channel activity: stimulated channel activity
[1]; in the absence of either ATP or PKA
  effect on activity of CFTR Cl− channels: without effect
[1]; phloxine B 1 μM
  effect on channel block by glibenclamide (50 μM): failed to prevent channel block
[1]; phloxine B 20 μM together with glibenclamide 50 μM
  I (average CFTR Cl− current) relative to control: 10±2 % of the control value
[1]; phloxine B 20 μM, ATP 5 mM
  I (average CFTR Cl− current) relative to control: 51±5 % of the control value
[1]; phloxine B 20 μM, […]
  I (average CFTR Cl− current) relative to control: 56±6 % of the control value
[1]; phloxine B 20 μM, […], listed as Phloxine B
  I (average CFTR Cl− current) relative to control: 59±4 % of the control value
[1]; voltage ramp ±100 mV, symmetrical 147 mM Cl−, ATP 1 mM
  voltage-dependence of CFTR inhibition: voltage-dependent
[2]
  size of cysts (phase-contrast): visible decrease in the size of cysts
[3]
  inhibition of cell growth in the presence of cAMP agonists: unaffected by cAMP agonists
  rank order of prevention of cell growth: ouabain (1 μM)=phloxine B (40 μM)=genistein (100 μM)=NPPB (400 μM)>glibenclamide (100 μM)
[3]; 40 μM
  cell growth (number of cells), day 0 to 6: prevented cell growth
